Experimental findings from publication PMC4013357 (The Journal of Veterinary Medical Science, 2013) are described below.

This test concerns the target T1, rBboDHODH (Babesia bovis dihydroorotate dehydrogenase) (Babesia bovis, UniProt A7AUQ8).
T1 sequence (A7AUQ8 1-415): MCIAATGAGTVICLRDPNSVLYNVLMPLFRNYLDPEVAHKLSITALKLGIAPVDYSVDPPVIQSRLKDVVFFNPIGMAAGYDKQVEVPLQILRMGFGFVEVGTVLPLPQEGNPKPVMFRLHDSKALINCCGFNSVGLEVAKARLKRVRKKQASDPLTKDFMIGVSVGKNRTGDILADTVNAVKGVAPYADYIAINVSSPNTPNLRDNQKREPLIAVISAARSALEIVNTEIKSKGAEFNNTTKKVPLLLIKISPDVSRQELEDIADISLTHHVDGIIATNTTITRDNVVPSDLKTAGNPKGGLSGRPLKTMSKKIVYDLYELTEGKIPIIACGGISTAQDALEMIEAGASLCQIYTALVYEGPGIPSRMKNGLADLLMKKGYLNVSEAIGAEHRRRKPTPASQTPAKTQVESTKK
As to the kind of experiment: biochemical. Particulars: read-out: Relative activity (%).

With `O=C1C(O)=C([C@H]2CC[C@H](c3ccc(Cl)cc3)CC2)C(=O)c2ccccc21` [ATV, atovaquone], the activity at 1 µM is 19.1%. In the case of `Cc1oncc1C(=O)Nc1ccc(C(F)(F)F)cc1` [LFN, leflunomide], the activity at 1000 µM came to 51.6%.
